From ChEMBL document CHEMBL5032521, “Design, synthesis and anti-tumor evaluation of 1,2,4-triazol-3-one derivatives and pyridazinone derivatives as novel CXCR2 antagonists” (Eur J Med Chem, 2021) come the findings set out here.

Active and inactive are the calls of the source. No cut-off for these calls is given here. Bounds are passed on as bounds.

For experiment [1], the system named is MDA-MB-231. Briefly: Antiproliferative activity against human MDA-MB-231 cells assessed as reduction in cell viability measured after 72 hrs by MTT assay. To be noted: MDA-MB-231, 72 h. In kind it is functional, cell-based.
The test system of experiment [2] is MDA-MB-231. Briefly: Antimigratory activity against human MDA-MB-231 cells assessed as reduction in cell migration at 2 uM measured after 24 hrs by wound healing assay relative to control. In kind it is functional. Set-up: scale not given: the % may be the effect or the level left.
The subject of experiment [3] is MDA-MB-231. The experiment is described as follows: Synergistic antiproliferative activity against human MDA-MB-231 cells assessed as inhibition of cell growth at 10 uM incubated for 72 hrs in presence of Sorafenib by MTT assay. In kind it is functional, cell-based. To be noted: MDA-MB-231, 72 h.
Experiment [4] has as its target T1, C-X-C chemokine receptor type 2 (Homo sapiens) (UniProt P25025).
T1 sequence (whole entry): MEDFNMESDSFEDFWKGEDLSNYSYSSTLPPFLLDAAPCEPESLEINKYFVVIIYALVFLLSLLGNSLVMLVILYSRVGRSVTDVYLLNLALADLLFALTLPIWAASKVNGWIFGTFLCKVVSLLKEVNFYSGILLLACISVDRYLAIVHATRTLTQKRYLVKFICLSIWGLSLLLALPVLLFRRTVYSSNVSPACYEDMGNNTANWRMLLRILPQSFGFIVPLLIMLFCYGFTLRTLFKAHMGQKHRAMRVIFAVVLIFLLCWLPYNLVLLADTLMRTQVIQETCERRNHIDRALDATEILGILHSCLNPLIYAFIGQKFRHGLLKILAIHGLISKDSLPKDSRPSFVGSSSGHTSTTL
Briefly: Antagonist activity at CXCR2 (unknown origin) at 10 uM by calcium flux assay relative to control. In kind it is functional.

The subject of experiment [5] is MDA-MB-231. Briefly: Synergistic antiproliferative activity against human MDA-MB-231 cells assessed as inhibition of cell growth at 25 uM incubated for 72 hrs in presence of Sorafenib by MTT assay. In kind it is functional, cell-based. To be noted: MDA-MB-231, 72 h.
Experiment [6] concerns MDA-MB-231. The experiment is described as follows: Inhibition of PI3K signalling in human MDA-MB-231 cells assessed as decrease in AKT phosphorylation at 5 to 10 uM measured after 24 hrs by Western blot assay. Particulars: dose 5-10 µM. In kind it is cell-based.
Experiment [7] relates to HUVEC. The experiment is described as follows: Anti-angiogenesis activity in HUVEC cells assessed as reduction in blood vessel area at 2 uM measured after 12 hrs by inverted microscopic analysis relative to control. In kind it is functional, Homo sapiens. Set-up: scale not given: the % may be the effect or the level left.
Experiment [8] has as its system MDA-MB-231. The experiment is described as follows: Inhibition of epithelial-mesenchymal transition in human MDA-MB-231 cells assessed as upregulation of E-cadherin expression at 10 uM measured after 24 hrs by Western blot assay. In kind it is functional, cell-based.
In experiment [9] the test system is MDA-MB-231. Briefly: Induction of ROS production in human MDA-MB-231 cells assessed as increase in mean fluorescence intensity at 10 uM measured after 24 hrs by DCFH-DA staining based inverted microscopic analysis. In kind it is functional, cell-based.
The subject of experiment [10] is MDA-MB-231. Briefly: Antimigratory activity against human MDA-MB-231 cells assessed as reduction in cell migration at 2 uM measured after 24 hrs by crystal violet staining based transwell assay relative to control. In kind it is functional. The arrangement: scale not given: the % may be the effect or the level left.
The test system of experiment [11] is MDA-MB-231. Briefly: Inhibition of epithelial-mesenchymal transition in human MDA-MB-231 cells assessed as downregulation of fibronectin expression at 10 uM measured after 24 hrs by Western blot assay. In kind it is functional, cell-based.
The subject of experiment [12] is MDA-MB-231. The experiment is described as follows: Inhibition of epithelial-mesenchymal transition in human MDA-MB-231 cells assessed as downregulation of vimentin expression at 10 uM measured after 24 hrs by Western blot assay. In kind it is functional, cell-based.
Experiment [13] relates to MDA-MB-231. The experiment is described as follows: Inhibition of epithelial-mesenchymal transition in human MDA-MB-231 cells assessed as downregulation of beta-catenin expression at 10 uM measured after 24 hrs by Western blot assay. In kind it is functional, cell-based.
The subject of experiment [14] is HUVEC. Briefly: Down-regulation of VEGF expression in HUVEC cells assessed as 10 uM measured after 24 hrs by Western blot assay. In kind it is functional, cell-based. Particulars: Homo sapiens.
In experiment [15] the test system is MDA-MB-231. Briefly: Inhibition of PI3K signalling in human MDA-MB-231 cells assessed as decrease in PI3K phosphorylation at 5 to 10 uM measured after 24 hrs by Western blot assay. In kind it is cell-based. Particulars: dose 5-10 µM.
A further experiment deals with Caco-2. The experiment is described as follows: Cytotoxicity against human Caco2 cells. In kind it is functional, cell-based.

Regarding `CNC(=O)c1cc(Oc2ccc(NC(=O)Nc3ccc(Cl)c(C(F)(F)F)c3)cc2)ccn1` [SORAFENIB], the half-maximal inhibitory concentration (IC50) in the experiment on MDA-MB-231 [1] is 8.52 µM. For the molecule `Cc1cc(=O)n(-c2ccc(C(F)(F)F)cc2)nc1C(=O)Nc1cccc(C(=O)N(C)C)c1O`, the Activity in the experiment on MDA-MB-231 [2] stood at 52%; with HUVEC [7], 59.2%; with MDA-MB-231 [10] it was 49.7%. The IC50 is 5.93 µM with MDA-MB-231 [3], greater than 25 µM in the experiment on MDA-MB-231 [1] and 2.96 µM with MDA-MB-231 [5]. In addition, the inhibition in experiment [4] (filed as antagonist) was 69.4%. The inhibition entry in the experiment with MDA-MB-231 [6], in the experiment with MDA-MB-231 [8], with MDA-MB-231 [11], in the experiment with MDA-MB-231 [12], in the experiment with MDA-MB-231 [13] and in the experiment with MDA-MB-231 [15] was “Active” throughout. Moreover, the result in the experiment on MDA-MB-231 [9] and in the experiment with HUVEC [14] was Active.

With `Cc1cc(=O)n(-c2ccc(Cl)cc2Cl)nc1C(=O)Nc1cccc(C(=O)N(C)C)c1O`, the inhibition in experiment [4] is -8.2%. As for `Cc1ccccc1-n1nc(C(=O)Nc2cccc(C(=O)N(C)C)c2O)n(C)c1=O`, the inhibition in experiment [4] (filed as antagonist) amounted to 43.8%. For the molecule `Cc1ccccc1-n1nc(C(=O)Nc2cccc(C(=O)N(C)C)c2O)c(C)cc1=O`, in [4], the inhibition came to 6.1%. In turn, `CC[C@@H](Nc1c(Nc2cccc(C(=O)N(C)C)c2O)c(=O)c1=O)c1ccc(C)o1` [NAVARIXIN ANHYDROUS] showed an IC50 in the experiment on Caco-2 of 18.8 µM. For `C#Cc1ccc(-n2nc(C(=O)Nc3cccc(C(=O)N(C)C)c3O)c(C)cc2=O)cc1`, the inhibition in experiment [4] came out at 1.5%. In the case of `Cc1cccc(-n2nc(C(=O)Nc3cccc(C(=O)N(C)C)c3O)n(C)c2=O)c1`, the inhibition in experiment [4] (filed as antagonist) turned out to be 43.8%. `C#Cc1ccc(-n2nc(C(=O)Nc3cccc(C(=O)N(C)C)c3O)n(C)c2=O)cc1`: the inhibition in [4] (filed as antagonist) came out at 49.2%. `Cc1cc(=O)n(-c2ccc(C(C)(C)C)cc2)nc1C(=O)Nc1cccc(C(=O)N(C)C)c1O`: in experiment [4], the inhibition was found to be 20.4%. The same measure, in the same setting: the result for `CN(C)C(=O)c1cccc(NC(=O)c2nn(-c3ccc(Cl)cc3Cl)c(=O)n2C)c1O` reads 26.6%. For `O=C(Nc1ccc([N+](=O)[O-])cc1O)Nc1ccccc1Br`, the Activity in the experiment on MDA-MB-231 [2] is 52.3%; in the experiment on HUVEC [7], 55.2%; in the experiment on MDA-MB-231 [10], 44%. For the same molecule, the inhibition result with MDA-MB-231 [8], in the experiment with MDA-MB-231 [11], in the experiment with MDA-MB-231 [12] and in the experiment on MDA-MB-231 [13] was “Active” in each case. Moreover, in the experiment with MDA-MB-231 [9], the result was Active. The outcome in the experiment on HUVEC [14] was inactive. Consider `CN(C)C(=O)c1cccc(NC(=O)c2nn(-c3ccc(Cl)cc3)c(=O)n2C)c1O`, for which the inhibition in experiment [4] came to 27.2%.

Take `Cc1ccc(-n2nc(C(=O)Nc3cccc(C(=O)N(C)C)c3O)n(C)c2=O)cc1`: the inhibition in experiment [4] came out at 24.3%.

Take `Cc1cc(=O)n(-c2ccc(Cl)c(Cl)c2)nc1C(=O)Nc1cccc(C(=O)N(C)C)c1O`: in [4], the inhibition worked out at 10.9%. As for `Cc1cc(=O)n(-c2ccccc2)nc1C(=O)Nc1cccc(C(=O)N(C)C)c1O`, the inhibition in [4] amounted to 3.2%. `Cc1cccc(-n2nc(C(=O)Nc3cccc(C(=O)N(C)C)c3O)c(C)cc2=O)c1`: in experiment [4], the inhibition amounted to 11.2%. Regarding `CN(C)C(=O)c1cccc(NC(=O)c2nn(-c3ccc(C(C)(C)C)cc3)c(=O)n2C)c1O`, the inhibition in [4] (filed as antagonist) turned out to be 40.9%. Regarding `Cc1ccc(-n2nc(C(=O)Nc3cccc(C(=O)N(C)C)c3O)c(C)cc2=O)cc1`, in [4], the inhibition was found to be 26.9%. As for `CN(C)C(=O)c1cccc(NC(=O)c2nn(-c3ccc(Cl)c(Cl)c3)c(=O)n2C)c1O`, in [4], the inhibition came out at 32.3%. Take `COc1ccc(-n2nc(C(=O)Nc3cccc(C(=O)N(C)C)c3O)c(C)cc2=O)cc1`: the inhibition in experiment [4] is 34.6%. As to `CN(C)C(=O)c1cccc(NC(=O)c2nn(-c3ccccc3)c(=O)n2C)c1O`, the inhibition in experiment [4] worked out at 18.6%. As for `CN(C)C(=O)c1cccc(NC(=O)c2nn(-c3ccc(F)cc3)c(=O)n2C)c1O`, in [4], the inhibition was determined as 12.7%.

With `CN(C)C(=O)c1cccc(NC(=O)c2nn(-c3ccc(C(F)(F)F)cc3)c(=O)n2C)c1O`, the inhibition in experiment [4] is 21.6%. For `Cc1cc(=O)n(-c2ccc(F)cc2)nc1C(=O)Nc1cccc(C(=O)N(C)C)c1O`, the inhibition in [4] was -0.8%.
